Experiments:
[1] = Metal-dependent changes of absorbance and fluorescence properties, cell-free; conditions: for fluorescence change by iron treatment in vitro: cell-free, FIG. 1
Experimental: (§1) FIG. 1: Metal-dependent changes of p-H8TPPA absorbance and fluorescence properties. • 10 μM p-H8TPPA dilutions were treated with various metal solutions (final concentration 40 μM) before recording (A) absorbance, (B) fluorescence excitation (⋅Em.650 nm) and (C) fluorescence emission (⋅⋅Exc.415 nm) spectra. Data are representative for three independent experiments.
as §1, with “3:” for “1:”, “m-H8TPPA” for “p-H8TPPA”
Aiming to use arylphosphonate-tethered porphyrins as real-time cellular metal fluorescence sensors, we first characterized their metal-responsiveness under cell-free conditions. p-H8TPPA (see FIG. 1) and m-H8TPPA (see FIG. 3), were pretreated with various bivalent metal ions at a pH close to the cellular milieu (pH 7.4) before recording absorption and fluorescence spectra. […] Following Co^2+ treatment absorption spectra were less intense, plateau-shaped with a bathochromic broadening up to 434 nm. Hg^2+-treatment red-shifted the Soret band by approximately 30 nm. […] Despite of their restricted fluorescence intensity, the fluorescence emission patterns of all the aforementioned metal-treated arylphosphonate-tethered porphyrins seemed to be […] almost indistinguishable from the buffer-controls (see FIG. 1C, FIGS. 2 and 4). Zn^2+ treatment led to a declined and much more broadened Soret band in the range of 380-430 nm (see FIG. 1A). […] Thus, we assume a fluorescence quenching effect of Zn^2+ that requires further investigation.
(§2) Absorption spectra were recorded with a Tecan Infinite M200 Reader (Tecan Austria GmbH, Grödig/Salzburg, Switzerland) from 350 to 500 nm. The same device was used in fluorescence mode to measure fluorescence excitation ([…]; ⋅⋅Em. 650 nm) and fluorescence emission (550-850 nm; ⋅⋅Exc. 415 nm) spectra. 3D scanning was performed on a Spark® multimode microplate reader (Tecan Austria GmbH, Grodig/Salzburg, Switzerland) from 350 to 450 nm (Exc.) and 555 to 850 nm (Em.) with a 5 nm step size, excitation and emission bandwidths of 5 nm, and a detector gain of 100. A typical reaction mix was made by combining equal volumes of 20 μM phosphonate porphyrins diluted in assay-buffer (50 mM HEPES in bidistilled water adjusted to […] with sodium hydroxide solution; depleted of multivalent cations with Chelex® 100 Resin pretreatment^51) and a double-concentrated metal cation solution. Following 30 min incubations at 37° C. absorption or fluorescence measurements were done. For redox conversion tests the CuSO4 solutions were pretreated with 500 μM of L-ascorbic acid before admixing into the phosphonate porphyrin dilutions. To evaluate the effect of metal chelators, the metal cation-treated incubation mixtures were posttreated with 50 equivalents of EDTA or EGTA for 15 min before fluorescence emission readout.

Caco-2 cells [2] = assay: Fluorescence labeling of Caco-2 enterocytes (emission spectra, confocal imaging); assay type: cell-based, human; conditions: for passage of the cellular membrane / cellular uptake: Caco-2 cells, fluorescence spectra and confocal imaging
Experimental: FIG. 2: Caco-2 fluorescence labeling with Phenylphosphonate-substituted porphyrines. • Caco-2 cells were incubated with increasing concentrations of p-H8TPPA or m-H8TPPA followed by fluorescence measurement (⋅Exc/Em.416 nm/650 nm). Data are means±S.E.M. of n=3 independent experiments.
FIG. 5: Fluorescence labeling of Caco-2 enterocytes by phenylphosphonate-substituted porphyrines. • Fluorescence emission spectra of Caco-2 cells exposed to p-H8TPPA, m-H8TPPA (A) or the isopropyl-modified phosphonate p-H8TPPA-iPr8 (C) in comparison with each of the phenylphosphonate porphyrins as 10 μM dilution in assay buffer (⋅Exc416 nm). (B) Confocal images of Caco-2 upon loading with p-H8TPPA or m-H8TPPA. (D) Confocal images of p-H8TPPA-iPr8 in the presence or absence of Caco-2 cells. Scale bar=10 μm. Data are representative for three independent experiments.
(§3) The human intestinal cell line Caco-2 (European Collection of Cell Cultures, Porton Down, UK) were routinely cultured at 37° C., 5% CO2 and humidified atmosphere in Dulbecco's Modified Eagles Medium (DMEM), containing 10% fetal calf serum (FCS) 100 U/mL penicillin and 100 μg/ml streptomycin. For cellular phosphonate porphyrins experiments, Caco-2 cells were transferred into 96 wells (initially seeding 5000 cells per well) and cultured for 14 days for differentiation into an enterocyte-like monolayer^53,54. For phosphonate labeling, differentiated cells were treated with either m-H8TPPA, p-H8TPPA or p-H8TPPA-iPr8 in a HEPES-based incubation buffer (10 mM HEPES, pH 7.35, 120 mM NaCl, 5.4 mM KCl, 5 mM glucose, 1.3 mM CaCl2, 1 mM MgCl2, 1 mM NaH2PO4, 0.3% bovine serum albumin) for […] Excess fluorescent dye was removed by multiple washing steps before fluorescence emission scanning using 416 nm excitation (Tecan Infinite M200 reader; Tecan, Grödig/Salzburg, […]). To analyze metal responsiveness of the intracellular phosphonate porphyrins, cells were post-treated with 50 μM of different metal solutions at 37° C. in an albumin-free incubation buffer in a time-course experiment.
Fluorescence images of phosphonate porphyrin-labeled Caco-2 enterocytes were acquired on a Leica TCS SP8 laser scanning confocal microscope equipped with LAS X 3.5.5.19976 software platform, using a HC PL APO CS2 63×/1.20 water objective. The filters settings were[…]Exc488 nm/[…]Em580 nm; pinhole 111.5 μm, pinhole size 1 AU.

[3] = Solubility in aqueous media with detergent pluronic; assay type: physicochemical; conditions: pluronic F-127
Caco-2 cells [4] = assay: Live-cell sensing of metal uptake into Caco-2 enterocytes; assay type: cell-based, human; conditions: for intracellular probe fluorescence upon extracellular FeSO4: 50 μM FeSO4, Caco-2 cells; for intracellular probe fluorescence upon Cu-exposure / intracellular probe response to incoming Cd^2+, Cu^2+, Hg^2+, Mn^2+, Pb^2+ and Zn^2+: 50 μM, Caco-2 cells
Experimental: FIG. 11: Live-cell sensing of metal uptake into Caco-2 enterocytes with p-H8THPPA and m-H8TPPA. • Caco-2 cells were loaded with p-H8THPPA or m-H8TPPA and the fluorescence recorded in 3 min intervals (⋅⋅Exc/Em.416 nm/650 nm). Fifteen minutes after the start of the experiment (arrow), metal cation solutions (final concentration 50 μM) or buffer (control) were added and the fluorescence measurement continued. Data are means±S.E.M. of n=3 independent experiments.
FIG. 12 Summary of cellular p-H8TPPA and m-H8TPPA metal responsiveness. • Data were taken from the last fluorescence readout shown in FIG. 11. Data are means+S.E.M. of n=3 independent experiments. Significant differences from buffer incubation ***p<0.001; **p<0.01; *p<0.05; one-way ANOVA/Dunnett's multiple comparison test.
as §3

[5] = Metal-dependent changes of absorbance and fluorescence properties, cell-free; conditions: for new absorbance band peak after Cd^2+ treatment: decline of 416 nm maximum; for Soret peak of visible absorption: buffer-control treatment, pH 7.4, 10 μM probe
[6] = Reversibility of metal complexation upon addition of EDTA or EGTA; conditions: 50 equivalents
Experimental: FIG. 9: Reversibility of p-H8THPPA and m-H8TPPA metal complexation. • Fluorescence of metal cation pretreated p-H8THPPA or m-H8TPPA solutions upon addition of 50 equivalents of EDTA or EGTA (⋅⋅Exc/Em.416 nm/650 nm). Data are means±S.E.M. of n=3 independent experiments. Statistically significant differences from buffer incubation (***p<0.001; two-way ANOVA/ Tukey post hoc test) or from metal cation treatment (##p<0.01; ###p<0.001; two-way ANOVA/Tukey post hoc test) are indicated.
as §2

[7] = Fluorescence titration with metal cations; conditions: for half maximal effective concentration for fluorescence silencing, copper versus other metal cations: 10 μM probe, Exc/Em 416 nm/650 nm; for fluorescence upon treatment with Cu^2+: 40 μM Cu^2+ (CuSO4), probe 10 μM
Experimental: FIG. 6: Fluorescence titration of p-H8THPPA and m-H8TPPA with metal cations. • 10 μM p-H8TPPA or m-H8TPPA solutions were treated with increasing quantities of metal cations followed by detection of fluorescence emission (⋅Exc/Em.416 nm/650 nm). Data are means±S.E.M. of at least n=3 independent experiments. Sigmoidal dose—response curves were fitted by non-linear regression and the resulting EC50 values are indicated.
FIG. 7: Fluorescence titration of p-H8THPPA and m-H8TPPA upon addition of metal cations • 10 μM p-H8TPPA or […] were treated with increasing quantities of metal cations followed by detection of fluorescence emission (⋅Exe/Em.416 nm/650 nm). Data are means+S.E.M. of at least n=3 independent experiments. Sigmoidal dose—response curves were fitted by non-linear regression and the resulting EC50 values are indicated.
as §2

[8] = Effect of Cu-redox conversion on fluorescence; conditions: 10 μM CuSO4 +/- 500 μM L-ascorbic acid
Experimental: FIG. 10: Effect of Cu-redox conversion on p-H8THPPA and m-H8TPPA fluorescence properties • 10 μM CuSO4 solutions pretreated +/−500 μM of l-ascorbic acid (15 min) were mixed with p-H8-TPPA or m-H8TPPA followed by detection of fluorescence emission (⋅⋅Exc/Em.416 nm/650 nm). Data are means+S.E.M. of n=3 independent experiments. Statistically significant differences from control ***p<0.001; two-way ANOVA/Tukey post hoc test) or from Cu^2+ alone (#p<0.05; two-way ANOVA/Tukey post hoc test) are indicated.
Absorption spectra were recorded with a Tecan Infinite M200 Reader (Tecan Austria GmbH, Grödig/Salzburg, Switzerland) from 350 to 500 nm. The same device was used in fluorescence mode to measure fluorescence excitation ([…]; ⋅⋅Em. 650 nm) and fluorescence emission (550-850 nm; ⋅⋅Exc. 415 nm) spectra. 3D scanning was performed on a Spark® multimode microplate reader (Tecan Austria GmbH, Grodig/Salzburg, Switzerland) from 350 to 450 nm (Exc.) and 555 to 850 nm (Em.) with a 5 nm step size, excitation and emission bandwidths of 5 nm, and a detector gain of 100. […] Following 30 min incubations at 37° C. absorption or fluorescence measurements were done. […] To evaluate the effect of metal chelators, the metal cation-treated incubation mixtures were posttreated with 50 equivalents of EDTA or EGTA for 15 min before fluorescence emission readout.

[9] = 10 μM probe, 40 μM metal, pH 7.4

| Compound | passage of the cellular membrane / cellular uptake (Caco-2 cells [2]) | intracellular probe fluorescence upon extracellular FeSO4 (Caco-2 cells [4]) | intracellular probe fluorescence upon Cu-exposure (Caco-2 cells [4]) | intracellular probe response to incoming Cd^2+, Cu^2+, Hg^2+, Mn^2+, Pb^2+ and Zn^2+ (Caco-2 cells [4]) | fluorescence change on binding of free divalent Cu, Zn, Pb, Hg, Cd, Co and Mn ions [1] | fluorescence change on binding of free divalent Fe, Mg and Ca ions [1] | fluorescence change by iron treatment in vitro [1] | fluorescence change upon Ca^2+ or Mg^2+ treatment [5, 9] | fluorescence change upon Mn^2+ and (far more pronounced) Pb^2+ treatment [5, 9] | red-shift of the Soret band after Hg^2+ treatment [5, 9] | new absorbance band peak after Cd^2+ treatment [5, 9] [nm] | Soret peak of visible absorption [5] | response of Zn^2+ and Hg^2+ quenching to metal chelator posttreatment [6] | response of copper-induced fluorescence decrease to metal chelator posttreatment [6] | half maximal effective concentration for fluorescence silencing, copper versus other metal cations [7] | fluorescence upon treatment with Cu^2+ [7] | fluorescence response to Cu^2+ and Cu^+ [8] | further results |
| --- | --- | --- | --- | --- | --- | --- | --- | --- | --- | --- | --- | --- | --- | --- | --- | --- | --- | --- |
| CC(C)OP(=O)(OC(C)C)c1ccc(-c2c3nc(c(-c4ccc(P(=O)(OC(C)C)OC(C)C)cc4)c4ccc([nH]4)c(-c4ccc(P(=O)(OC(C)C)OC(C)C)cc4)c4nc(c(-c5ccc(P(=O)(OC(C)C)OC(C)C)cc5)c5ccc2[nH]5)C=C4)C=C3)cc1 [p-H8TPPA-iPr8, 5,10,15,20-tetrakis[p-(diisopropoxyphosphoryl)phenyl] porphyrin] | inaccessible for cellular uptake |  |  |  |  |  |  |  |  |  |  |  |  |  |  |  |  | fluorescence change upon metal binding ([1]; isopropyl diester, phosphonate blocked for metal binding): no fluorescence change; microcrystal size in confocal microscopy pictures (Caco-2 cells [2]; incubation buffer, with or without Caco-2 cells): ~20 μm; effect of detergent pluronic on solubility in aqueous media [3]: did not improve the solubility |
| O=P(O)(O)c1ccc(-c2c3nc(c(-c4ccc(P(=O)(O)O)cc4)c4ccc([nH]4)c(-c4ccc(P(=O)(O)O)cc4)c4nc(c(-c5ccc(P(=O)(O)O)cc5)c5ccc2[nH]5)C=C4)C=C3)cc1 [p-H8TPPA, 5,10,15,20-Tetrakis [p-phenylphosphonic acid] porphyrin] | pass the cellular membrane | remained stable | strong and rapid decline | fluorescence silencing | fluorescent decrease | fluorescent increase | slightly enhanced | higher fluorescence | dropped markedly | approximately 30 nm | 434 | around 416 nm | quenching was reversed | almost non-responsive | considerably lower for copper | almost complete abrogation | Quenching | fluorescence emission after Zn^2+ treatment relative to excitation properties ([5]; 10 μM probe, 40 μM metal, pH 7.4, FIG. 1): much lower than what would have been expected |
| O=P(O)(O)c1cccc(-c2c3nc(c(-c4cccc(P(=O)(O)O)c4)c4ccc([nH]4)c(-c4cccc(P(=O)(O)O)c4)c4nc(c(-c5cccc(P(=O)(O)O)c5)c5ccc2[nH]5)C=C4)C=C3)c1 [m-H8TPPA, 5,10,15,20-tetrakis [m-phenylphosphonic acid] porphyrin] | pass the cellular membrane | remained stable | strong and rapid decline | fluorescence silencing | fluorescent decrease | fluorescent increase | slightly enhanced | higher fluorescence | dropped markedly | approximately 30 nm | 434 | around 416 nm | quenching was reversed | almost non-responsive | considerably lower for copper | almost complete abrogation | Quenching |  |
